# Measurements as given in patent US10544153B2, “Benzoic acid, benzoic acid derivatives and heteroaryl carboxylic acid conjugates of oxycodone, prodrugs, methods of making and use thereof” (KemPharm, Inc., priority 2014, dated 2020).
# Assays:
# [1] = Oral PK in rats: plasma concentrations of oxymorphone by LC-MS/MS; details: oxymorphone released
# [2] = Oral PK in rats: plasma concentrations of released oxycodone by LC-MS/MS
# [3] = Intranasal PK in rats (Table 4); details: title: oxymorphone released (released oxycodone)
# [4] = Tamper resistance: percent of OC released under tampering conditions, LC-MS/MS; assay type: physicochemical; details: RT
# Protocol: Effective abuse deterrent forms of drugs of abuse can also be resistant to chemical tampering. The prodrugs in the present technology also impart this characteristic. Several common tampering scenarios were employed and percent of OC released were determined by liquid chromatography with tandem mass spectrometry (LC-MS/MS). The results as shown in Table 7 indicated a very high degree of tamper resistance in the example OC prodrugs, releasing little to no OC.
# [5] = Intranasal PK in rats: plasma concentrations of released oxymorphone by LC-MS/MS
# [6] = conjugate equivalent to 2 mg/kg freebase oxycodone
# [7] = equivalent to 2 mg/kg freebase oxycodone
# [8] = Table 6, equivalent to 2 mg/kg freebase oxycodone
# [9] = Table 6, relative to oxycodone (OC)
smiles,measurement,setting,value
COc1ccc2c3c1O[C@H]1C(OC(=O)c4ccc(O)cc4)=CC[C@@]4(O)[C@@H](C2)N(C)CC[C@]314 [Conjugate 4-OH-Bz-OC],AUC,[1]; [6],3.3 ng·h/mL
same,Cmax,[1]; [6],2.1 ng/mL
same,tmax,[1]; [6],15 min
same,%-AUC of OC,[1]; relative to oxycodone (OC),55%
same,%-Cmax of OC,[1]; relative to oxycodone (OC),49%
same,%-tmax of OC,[1]; relative to oxycodone (OC),100%
same,AUC,[2]; [6],53.5 ng·h/mL
same,Cmax,[2]; [6],35.4 ng/mL
same,tmax,[2]; [6],45 min
same,%-AUC of OC,[2]; relative to oxycodone (OC),58%
same,%-Cmax of OC,[2]; relative to oxycodone (OC),69%
same,%-tmax of OC,[2]; relative to oxycodone (OC),188%
same,Cmax,[3]; [7],759.2 ng/mL
same,tmax,[3]; [7],4.98 min
same,%-Cmax of OC,[3]; relative to oxycodone (OC),41%
same,%-tmax of OC,[3]; relative to oxycodone (OC),100%
same,percent of OC released,"[4]; 1N HCl, 1 hour",0%
same,percent of OC released,"[4]; 5% Bicarbonate, 1 hour",0%
same,percent of OC released,"[4]; Water, 1 hour",0%
same,percent of OC released,"[4]; Water, 24 hours",0%
same,AUC,[5]; [8],11.8 ng·h/mL
same,Cmax,[5]; [8],19.0 ng/mL
same,tmax,[5]; [8],27 min
same,%-AUC of OC,[5]; [9],58%
same,%-Cmax of OC,[5]; [9],61%
same,%-tmax of OC,[5]; [9],90%
